According to ChEMBL document CHEMBL5729664, “Substituted pyridine derivatives as SARM1 inhibitors” (2023):

Experiment: Biological Assay: Each reaction was run at a volume of 20 μL containing 50 μM compound (dissolved in DMSO; final concentration of DMSO is 1% v/v), 40 nM human SARM1 (50-724), 0.3 mM NMN, 20 μM NAD, 1 mM TCEP, 25 mM HEPES pH 7.4, 10 mM KCl and 10 mM MgCl2. The reaction was incubated at room temperature for 60 minutes and quenched with 20 μL of 0.4% formic acid. The samples were run on Agilent HPLC 1260 Infinity II with Synergi 2.5 μM Fusion-RP 100 Å (100×3.0 mm) LC column from Phenomenex. Total run time for each sample was 4 minutes. The run was isocratic with 1.5% methanol in 40 mM ammonium acetate pH 6.0. Samples were run at a flow rate of 0.8 ml/min at 55° C. Peak areas of NAD and NAM were determined using OpenLAB CDS (Chem Station edition) software. For dose-response, the compound was diluted serially 1:3 in DMSO and added to the reaction starting at a final compound concentration of 100 μM in 1% DMSO.
For `NC(c1nc(Cc2ccncc2)cs1)C(F)(F)F` (stereo not drawn), the IC50 was “in the range around 55 µM”.
With `O[C@@H](c1nc(Cc2ccncc2)c[nH]1)c1cncs1` the IC50 was less than 1 µM.
For `OC(c1ccccn1)c1ncc(Cc2ccncc2)[nH]1` (stereo not drawn), the IC50 was “in the range around 5.5 µM”.
With `CN(C)C(c1ncc(Cc2ccncc2)[nH]1)C(F)(F)F` (stereo not drawn) the IC50 was “in the range around 55 µM”.
In the case of `OC(c1ncc(Cc2ccncc2)[nH]1)(c1cncs1)C(F)(F)F` (stereo not drawn), the IC50 is reported as “in the range around 55 µM”.
With `CN[C@@H](c1ncc(Cc2ccncc2)[nH]1)C(F)(F)F` the IC50 was “in the range around 5.5 µM”.
`N[C@@H](c1nc(Cc2ccncc2)c[nH]1)C(F)(F)F` gave an IC50 of less than 1 µM.
Work on `OC(c1nc(Cc2ccncc2Cl)c[nH]1)C(F)(F)F` (stereo not drawn) yielded an IC50 of less than 1 µM.
In the case of `C[C@@H](c1ccncc1)c1c[nH]c([C@H](O)C(F)(F)F)n1`, the IC50 is reported as “in the range around 55 µM”.
With `O[C@@H](c1ncc(Cc2ccncc2)[nH]1)C(F)(F)F` the IC50 was less than 1 µM.
In the case of `O[C@H](C1N=CC(Cc2ccncc2F)=N1)C(F)(F)F` (stereo partly drawn), the IC50 is reported as “in the range around 5.5 µM”.
With `Cc1cnccc1Cc1c[nH]c([C@H](O)C(F)(F)F)n1` the IC50 was less than 1 µM.
Compound `OC(C1N=CC(Cc2ccncc2F)=N1)C(F)(F)F` (stereo not drawn) has an IC50 of less than 1 µM.
In the case of `O[C@H](c1ncc(Cc2ccncc2)[nH]1)c1nccs1`, the IC50 is reported as “in the range around 5.5 µM”.
In the case of `CNC(c1ncc(Cc2ccncc2)[nH]1)C(F)(F)F` (stereo not drawn), the IC50 is reported as “in the range around 5.5 µM”.
For `O[C@H](c1ncc(Cc2ccncc2)[nH]1)C(F)(F)F`, the IC50 was less than 1 µM.
For `C[C@@H](c1ccncc1)c1c[nH]c([C@@H](O)C(F)(F)F)n1`, the IC50 was less than 1 µM.
Compound `CC(c1ccncc1)c1c[nH]c(CC(F)(F)F)n1` (stereo not drawn) has an IC50 of less than 1 µM.
With `CC(O)(c1nc(Cc2ccncc2)c[nH]1)C(F)(F)F` (stereo not drawn) the IC50 was “in the range around 5.5 µM”.
`C[C@H](c1ccncc1)c1c[nH]c(CC(F)(F)F)n1` showed an IC50 of less than 1 µM.
With `CC(c1ccncc1)c1ccc(CC(F)(F)F)[nH]1` (stereo not drawn) the IC50 was “in the range around 5.5 µM”.
In the case of `COC(c1ncc(Cc2ccncc2)[nH]1)C(F)(F)F` (stereo not drawn), the IC50 is reported as “in the range around 5.5 µM”.
With `Cc1cnccc1Cc1cnc([C@@H](O)c2cncs2)[nH]1` (single isomer, unassigned) the IC50 was “in the range around 55 µM”.
